Test results reported in ChEMBL document CHEMBL1130698, “Design and synthesis of new potent, silent 5-HT1A antagonists by covalent coupling of aminopropanol derivatives with selective serotonin reuptake inhibitors” (Bioorg Med Chem Lett, 1998).

Columns and labels:
[1] = molecular target: T1, 5-hydroxytryptamine receptor 1A (Homo sapiens) (UniProt P08908); assay: Antagonistic potency as binding affinity of 5-HT stimulated [35S]GTP gamma S to human 5-HT1A receptor; assay type: functional
T1 sequence (whole entry): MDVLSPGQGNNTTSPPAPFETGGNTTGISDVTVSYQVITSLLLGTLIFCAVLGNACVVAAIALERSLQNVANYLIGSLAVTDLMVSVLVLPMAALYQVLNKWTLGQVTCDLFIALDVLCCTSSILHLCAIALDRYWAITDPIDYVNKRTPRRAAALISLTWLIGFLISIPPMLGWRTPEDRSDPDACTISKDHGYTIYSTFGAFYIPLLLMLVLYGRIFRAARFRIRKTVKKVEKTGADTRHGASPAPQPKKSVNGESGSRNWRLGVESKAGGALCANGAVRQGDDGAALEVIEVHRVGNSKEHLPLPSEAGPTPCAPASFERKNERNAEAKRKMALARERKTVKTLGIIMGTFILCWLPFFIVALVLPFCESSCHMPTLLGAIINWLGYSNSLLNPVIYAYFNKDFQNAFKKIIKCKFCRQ

[2] = molecular target: T2, 5-hydroxytryptamine receptor 1A (Homo sapiens, UniProt P08908); assay: Displacement of [3H]8-OH-DPAT from human 5-HT1A receptor
T2 sequence (P08908 whole entry): T1 sequence (whole entry)

Row | Compound | Kb [1] [nM] | Ki [2] [nM]
1 | OC(CNCCCCCCN1CC[C@H](c2ccc(F)cc2)[C@@H](COc2ccc3c(c2)OCO3)C1)COc1cccc2[nH]ccc12 (some centres undefined) | 4.3 | 6.7
2 | OC(CNCCCCCCN1CC[C@H](c2ccc(F)cc2)[C@@H](COc2ccc3c(c2)OCO3)C1)COc1cccc2ccccc12 (some centres undefined) | 188 | 156
3 | O[C@H](CNCC[C@H](Oc1ccc(C(F)(F)F)cc1)c1ccccc1)COc1cccc2[nH]ccc12 | 1.4 | 60.3
4 | OC(CNCCCCCCNCCC(Oc1ccc(C(F)(F)F)cc1)c1ccccc1)COc1cccc2ccccc12 (centres undefined) | 1730 | 391
5 | O[C@@H](CNCC[C@H](Oc1ccc(C(F)(F)F)cc1)c1ccccc1)COc1cccc2[nH]ccc12 | 0.2 | 7.8
6 | OC(CNCCC(Oc1ccc(C(F)(F)F)cc1)c1ccccc1)COc1cccc2[nH]ccc12 (centres undefined) | 2.2 | 18.7
7 | O[C@H](COc1cccc2[nH]ccc12)CN1CC[C@@H](c2ccc(F)cc2)[C@H](COc2ccc3c(c2)OCO3)C1 | 0.7 | 5.9
8 | OC(CNCCC(Oc1ccc(C(F)(F)F)cc1)c1ccccc1)COc1ccccc1C1CCCC1 (centres undefined) | 15.2 | 36.4
9 | O[C@@H](COc1cccc2[nH]ccc12)CN1CC[C@@H](c2ccc(F)cc2)[C@H](COc2ccc3c(c2)OCO3)C1 | 7.5 | 15.7
10 | CCN(CC)C(=O)[C@@]1(c2ccccc2)C[C@H]1CNCC(O)COc1cccc2[nH]ccc12 (some centres undefined) | 14.8 | 45.4
11 | O[C@@H](CNCC[C@H](Oc1ccc(C(F)(F)F)cc1)c1ccccc1)COc1cccc2ccccc12 | 37.9 | 32.9
12 | O[C@H](CNCC[C@H](Oc1ccc(C(F)(F)F)cc1)c1ccccc1)COc1cccc2ccccc12 | 388 | 142
